Entries after “also recorded” stand apart in the source; their conditions may differ.
Columns and labels:
[1] = system: iPSC-derived M2 macrophages; assay: Fluorescent phagocytosis assay, iPSC-derived M2 macrophages against lung ADC cells (H1002); assay type: cell-based, human; parameters: dose or concentration left out as unconfirmed; settings: MK-8931 two days, p<0.01
Description: FIG. 10, panels A-C. MK-8931 Treatment Promotes Phagocytosis of iPSC-derived M2 Macrophages against Human Lung ADC Cancer Cells. (A) Immunofluorescent analysis of macrophage marker expression in iPSC-derived M2 macrophages. The iPSC-derived M2 macrophages (GFP+) and the matched iPSCs (GFP+, control) were stained with specific antibodies against IBA1 (total macrophage marker, in red) and FIZZ1 (M2 macrophage marker, in red) and then counterstained with DAPI (in blue). […] (B and C) In vitro macrophage phagocytosis assay showing that the BACE1 inhibitor MK-8931 promoted phagocytosis of the iPSC-derived macrophages against human lung ADC cancer cells. […] Scale bars represent 3 μM. […]
In this assay, we detected macrophage phagocytosis as fluorescent inclusion bodies of the cancer cells (tdTomato^+) within macrophages (GFP^+). […] Thus, potential small molecules that can activate macrophages (GFP*) to phagocytize glioma cells (tdTomato*) could be detected under a fluorescent microscope during the screening (FIG. 1C).
To screen for potential small molecules activating phagocytosis of iPSC-derived M2 macrophages against human cancer cells, GFP^+ iPSC-derived M2 macrophages (5×10^4 cells) were seeded in each well of 24-well plates and treated by small molecules for two days. […] The phagocytosis was measured as the number of inclusion bodies of cancer cells (in red) within macrophages (in green).

[2] = system: intracranial xenografts of lung ADC (H1002); assay: Intracranial xenografts of lung adenocarcinoma (H1002) brain metastases; assay type: in vivo, mouse; settings: 30 mg/kg once daily oral
Description: The lung cancer cells (H1002, ADC) expressing luciferase were transplanted into mouse brains to establish intracranial xenografts of lung ADC. […] Data are shown as mean±SEM. * p<0.05, *** p<0.001, and NS (not significant)≥0.05; Student's t-test.
The lung ADC cancer cells (H1002) expressing luciferase were transplanted into mouse brains to establish intracranial xenografts of lung ADC. […] IVIS was performed twice per week to monitor tumor growth. When humane endpoints occur, mouse was anesthetized and brains with xenografts were harvested for further analyses. […] Frozen xenograft sections were immunostained with a specific antibody against cleaved caspase-3 (in green) and counterstained with DAPI (in blue). […] Frozen xenograft sections were immunostained with a specific antibody against cleaved GLUT1 (in green) and counterstained with DAPI (in blue). […] Frozen xenograft sections were immunostained with a specific antibody against Ki-67 (in green) and counterstained with DAPI (in blue). […] Data are shown as mean±SEM of at least 6 images from 3-5 mice. * p<0.05 and ** p<0.01; Student's t-test.
In brief, GSCs (T4121 and T387) or lung ADC cells (H1002) expressing luciferase were injected into the right cerebral cortex at a depth of 3.5 mm. Seven days after the implantation, IVIS was performed twice per week to monitor the tumor growth under the Spectrum CT Imaging System (PerkinElmer) before and after treatment. […] Mouse brains bearing the tumors were collected for immunofluorescent, histochemical and histological analyses.
(§1) Primary antibodies were added to the sections or cells and incubated overnight at 4° C. […] After the incubation of the primary antibodies, the sections or cells were washed three times with cold PBS for five minutes each and then incubated with the secondary antibodies for one hour at room temperature. […] Finally, images were captured by a fluorescence microscopy (Leica DM4000) and further analyzed with ImageJ software.

[3] = system: GSCs (T387, T4121, and U87); assay: Cell viability (cell titer) assay on glioma stem cells; assay type: cell-based, human; settings: MK-8931 10 and 50 μg/mL, three days
Description: FIG. 16, panels A-E. MK-8931 Treatment Had Little Effect on Glioma Stem Cells. (A and B) Tumorsphere formation assay to examine the effect of MK-8931 treatment on glioma stem cells (GSCs). Representative images (A) of tumorsphere derived from T4121 GSCs treated with MK-8931 (50 μg/mL) or the vehicle control. Quantifications (B) show the number and size of tumorsphere derived from T4121 GSCs treated with MK-8931 (50 μg/mL) or the control. Data are shown as mean±SEM. NS (not significant)≥0.05, Student's t-test. […] GAPDH was blotted as loading control. (D) Immunoblot analysis of the apoptotic markers cleaved-PARP and cleaved caspase-3 in GSCs (T387 and T4121) treated with MK-8931 (50 μg/mL), etoposide (Etop, 1 μM), or the vehicle control for different time as indicated. GAPDH was blotted as loading control. […] Ctl: Control; Etop: Etoposide. (E) Cell viability assay to examine the effect of MK-8931 treatment on proliferation of glioma stem cells. […] Data are shown as mean±SEM. NS (not significant)≥0.05, Student's t-test.
Cell viability assay was performed by using a Cell Titer-Glo Luminescent Cell Viability Assay Kit according to the manufacturer's instruction (Promega, G7571). For this assay, 1,000 cells were seeded on one well of a 96-well plate in 100 μL of stem cell medium. […] Plate was loaded on the VICTOR Multilabel Plate Reader (PerkinElmer) and the readout were recorded and analyzed. […]

AGS gastric cancer cells = assay: Subcutaneous stomach cancer xenografts (AGS); assay type: in vivo, mouse; settings: 50 mg/kg once daily oral gavage, from two weeks after inoculation; p<0.05
Description: FIG. 22, panels A-C, show treatment with the BACE1 Inhibitor MK-8931 reduced tumor growth of gastric cancer. (A-C) A preclinical trial of MK-8931 for stomach cancer treatment in xenograft models. AGS gastric cancer cells (3×106) were transplanted into mouse right flank through subcutaneous injection to establish subcutaneous stomach cancer xenografts. […] Tumors dissected from mice of each group were photographed (B) and weighed (C).

[4] = cited from earlier work
[5] = system: GBM xenografts derived from T4121 GSCs; assay: MK-8931 combined with low dose irradiation in T4121 GBM xenografts
Description: Glioma stem cells (T4121 GSCs) expressing luciferase were transplanted into mouse brains through intracranial injection to establish orthotopic GBM xenografts. Irradiation (2 Gy) was performed on Day 8 and Day 16. […] Representative bioluminescent images (B) at day 7 (before treatment) and day 15 (treatment for one week) are shown. […] Data are shown as mean±SEM. * p<0.05, ** p<0.01, * ** p<0.001, and NS (not significant)≥0.05 as indicated; Student's t-test. Ctl: Control; IR: Irradiation. […] Data are shown as mean±SEM. Log-rank analysis was used to assess the significance. Significances were shown as indicated. Ctl: Control; IR: irradiation.
Frozen xenograft sections were co-immunostained with specific antibodies against IBA1 (in green) and CD163 (in red) or HLA-DR (in red) and counterstained with DAPI (in blue). Representative immunofluorescent images showing the staining of IBA1 and the M2 TAM marker CD163 (A) or IBA1 and the M1 TAM marker HLA-DR (B) in the GBM xenografts. […] (D and E). […] Frozen xenografts sections were immunostained with a specific antibody against cleaved caspase-3 (in green) and counterstained with DAPI (in blue). […] Data are shown as mean±SEM from at least 5 images of 3-5 mice. * p<0.05 and ** p<0.01; Student's t-test. Scale bar represents 3 μM. Ctl: Control; IR: Irradiation; CC-3: Cleaved caspase-3.
Seven days after the implantation, IVIS was performed twice per week to monitor the tumor growth under the Spectrum CT Imaging System (PerkinElmer) before and after treatment. […] Mouse brains bearing the tumors were collected for immunofluorescent, histochemical and histological analyses.
Irradiation (IR) was performed with the Pantek X-ray irradiator (once per week) at low dose (2 Gy). To protect the mice and limit the side effect of irradiation, anesthetized mice were covered by a lead plate and only the tumor implantation sites were exposed to the fractioned radiation. Mice were sacrificed at the indicated time points or upon the appearance of the neurological signs. […] Only animals with accidental death (for example, due to infection or intracranial injection) were excluded from the data analysis.
as §1

[6] = IR 2 Gy on Day 8 and Day 16 plus MK-8931 30 mg/kg once daily oral from Day 9, 30 mg/kg

SMILES: CN1C(N)=N[C@](C)(c2cc(NC(=O)c3ccc(F)cn3)ccc2F)CS1(=O)=O [MK-8931]
- phagocytosis of iPSC-derived macrophages against human lung ADC cancer cells [1]: potently induced phagocytosis of iPSC-derived macrophages
- tumor growth (mean bioluminescence) ([2]; Days 7, 14 and 21): significantly inhibited tumor growth of lung ADC brain metastases
- M1 TAMs (HLA-DR+/IBA1+ cells) ([2]; p<0.001): significantly increased M1 TAMs
- M2 TAMs (CD163+/IBA1+ cells) ([2]; p<0.001): significantly reduced M2 TAMs
- survival (Kaplan-Meier) ([2]; p<0.001 by log-rank): significantly extended the survival of animals bearing the intracranial lung ADC xenografts
- cell proliferation (fraction of Ki-67+ cells) ([2]; p<0.01): significantly reduced cell proliferation
- apoptosis (fraction of cleaved caspase-3+ cells) ([2]; p<0.05): significantly augmented apoptosis
- in vivo TAM phagocytosis (inclusion bodies) ([2]; p<0.05): significantly increased TAM phagocytosis against human lung ADC cells
- vessel density (GLUT1+ cells) ([2]; p<0.05): significantly reduced vessel density
- proliferation / cell viability of glioma stem cells (cell titer) [3]: did not affect
- tumor growth (tumor weight) (AGS gastric cancer cells): significantly reduced tumor growth of gastric cancer
- efficacy in phase 3 AD clinical trials ([4]; AD patients): ineffectiveness in controlling AD progression or improving life quality of AD patients
- tolerability / safety in AD clinical trials ([4]; patients, Phase I to Phase III): well-tolerated for patients; also recorded: very safe in the clinical trials for AD treatment; also recorded: well-tolerated in human and showed little toxic effect; also recorded: very safe for patients
- survival (Kaplan-Meier), IR plus MK-8931 [5, 6]: synergized with MK-8931 treatment to extend survival of the tumor-bearing animals; also recorded: longest survival extension among four experimental groups
- tumor growth (mean bioluminescence), IR plus MK-8931 [5, 6]: significantly synergized with MK-8931 treatment to inhibit GBM tumor growth; also recorded: strongest inhibition on GBM growth
- TAM subtype (CD163+ M2 vs HLA-DR+ M1), IR plus MK-8931 ([5]; IR (2×2 Gy) plus MK-8931): effectively converted M2 TAMs (CD163+) into M1 macrophages (HLA-DR^+)
- apoptosis (fraction of cleaved caspase-3+ cells), IR plus MK-8931 ([5]; IR (2×2 Gy) plus MK-8931 30 mg/kg, mean±SEM): 25.9±3.1%
- apoptosis (fraction of cleaved caspase-3+ cells), MK-8931 treatment alone ([5]; MK-8931 30 mg/kg alone, mean±SEM): 10.4±0.9%
